Experiment [1] addresses Serine/threonine-protein phosphatase PP1-alpha catalytic subunit (Homo sapiens, UniProt P62136). The experiment can be described thus: PP1 phosphatase inhibitors, dose response, biochemical, fluorescence (AID 2403).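 Further: phosphatase turnover of OMFP into fluorescent 3-O-methylfluorescein.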
Experiment [2] has as its target T1, Serine/threonine-protein phosphatase (Homo sapiens, UniProt Q9BPW0).
T1 sequence (Q9BPW0 whole entry): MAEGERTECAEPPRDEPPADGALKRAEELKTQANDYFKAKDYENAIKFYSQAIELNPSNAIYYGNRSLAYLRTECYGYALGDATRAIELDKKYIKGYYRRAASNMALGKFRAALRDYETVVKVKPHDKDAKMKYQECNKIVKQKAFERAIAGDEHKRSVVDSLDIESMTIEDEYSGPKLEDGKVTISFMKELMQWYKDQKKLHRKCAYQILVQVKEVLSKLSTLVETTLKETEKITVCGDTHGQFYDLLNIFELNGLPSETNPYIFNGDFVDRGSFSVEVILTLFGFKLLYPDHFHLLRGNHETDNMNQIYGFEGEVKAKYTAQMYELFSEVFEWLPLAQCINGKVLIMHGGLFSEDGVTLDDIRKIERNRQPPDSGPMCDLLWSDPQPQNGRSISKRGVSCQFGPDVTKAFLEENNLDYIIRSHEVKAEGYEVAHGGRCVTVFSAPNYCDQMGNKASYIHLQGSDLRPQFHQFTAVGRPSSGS
Kind of experiment: Counterscreen for inhibitors of PP1: fluorescence-based biochemical high throughput dose response assay to identify inhibitors of Protein Phosphatase 5 (PP5). [Related pubchem assays: 2034 (Summary (PP5 inhibitors)), 1987 (PP5 inhibitors in singlate), 2235 (PP1 inhibitors in singlate)].

Experiment [3] deals with Peroxisome proliferator-activated receptor gamma/Nuclear receptor corepressor 2 (Homo sapiens, UniProt P37231+Q9Y618). The experiment can be described thus: Counterscreen for NR2E3 inverse agonists: TR-FRET-based biochemical high throughput dose response assay to identify inverse agonists of the interaction between peroxisome proliferator-activated receptor gamma (PPARg) and nuclear receptor co-repressor 2 (NCOR2). In kind it is functional. For orientation: Counterscreens check selectivity or assay interference.

The target of experiment [4] is Photoreceptor-specific nuclear receptor (Homo sapiens, UniProt Q9Y5X4). Kind of experiment: NR2E3 inverse agonists, dose response, biochemical, TR-FRET (AID 463256). In kind it is functional. In general terms: Time-resolved FRET reads energy transfer from a long-lived donor to a nearby acceptor.
Experiment [5] addresses Eukaryotic translation initiation factor 4E (Mus musculus, UniProt P63073). Kind of experiment: eIF4E–eIF4G protein interaction inhibitors, dose response, biochemical, TR-FRET (AID 855).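 Further: potency for disrupting eIF4E binding to eIF4GI seen as loss of FRET.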 In kind it is functional.
Another experiment addresses Hexokinase HKDC1 (Homo sapiens, UniProt Q2TB90). The experiment can be described thus: HKDC1 hexokinase inhibitors, dose response, biochemical, W721R variant (AID 504729). In kind it is functional.
The next experiment has as its target Bcl-2-like protein 10 (Homo sapiens, UniProt Q9HD36). Kind of experiment: displacers of TR3 peptide from Bcl-B, primary screen, selectivity assay for Bfl-1 inhibitor project, biochemical, fluorescence polarization, FITC-TR3 peptide (AID 748).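 Further: fluorescence polarization from a fluorescein-labelled TR3 peptide binding purified Bcl-B.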
The target of experiment [6] is T2, Calpain-2 catalytic subunit (Sus scrofa, UniProt P43367).
T2 sequence (P43367 whole entry): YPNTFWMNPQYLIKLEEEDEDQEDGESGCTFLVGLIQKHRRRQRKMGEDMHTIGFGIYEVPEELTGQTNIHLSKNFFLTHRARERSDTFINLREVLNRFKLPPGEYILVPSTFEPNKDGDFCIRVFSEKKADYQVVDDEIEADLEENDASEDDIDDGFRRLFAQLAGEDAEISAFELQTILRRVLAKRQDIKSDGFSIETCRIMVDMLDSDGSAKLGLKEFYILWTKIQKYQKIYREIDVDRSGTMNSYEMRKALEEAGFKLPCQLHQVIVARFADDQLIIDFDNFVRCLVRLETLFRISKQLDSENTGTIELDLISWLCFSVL
Kind of experiment: pig calpain II inhibitor potency, dose response, biochemical, fluorogenic peptide substrate (AID 1420). In kind it is functional.

The target of the next experiment is Genome polyprotein (Hepatitis C virus, UniProt Q2Q167). The experiment can be described thus: HCV core protein dimerization inhibitors, dose response, biochemical, TR-FRET (AID 2159).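 Further: blocks dimerization of HCV core protein measured by TR-FRET between tagged core106 pairs.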 Also on record: species or system Hepacivirus hominis.
The target in experiment [7] is T3, Voltage-gated N-type calcium channel alpha-1B subunit/Amyloid beta A4 precursor protein-binding family A member 1 (Homo sapiens, UniProt Q00975+Q02410). In kind it is protein assay.
T3 sequence (Q00975 whole entry): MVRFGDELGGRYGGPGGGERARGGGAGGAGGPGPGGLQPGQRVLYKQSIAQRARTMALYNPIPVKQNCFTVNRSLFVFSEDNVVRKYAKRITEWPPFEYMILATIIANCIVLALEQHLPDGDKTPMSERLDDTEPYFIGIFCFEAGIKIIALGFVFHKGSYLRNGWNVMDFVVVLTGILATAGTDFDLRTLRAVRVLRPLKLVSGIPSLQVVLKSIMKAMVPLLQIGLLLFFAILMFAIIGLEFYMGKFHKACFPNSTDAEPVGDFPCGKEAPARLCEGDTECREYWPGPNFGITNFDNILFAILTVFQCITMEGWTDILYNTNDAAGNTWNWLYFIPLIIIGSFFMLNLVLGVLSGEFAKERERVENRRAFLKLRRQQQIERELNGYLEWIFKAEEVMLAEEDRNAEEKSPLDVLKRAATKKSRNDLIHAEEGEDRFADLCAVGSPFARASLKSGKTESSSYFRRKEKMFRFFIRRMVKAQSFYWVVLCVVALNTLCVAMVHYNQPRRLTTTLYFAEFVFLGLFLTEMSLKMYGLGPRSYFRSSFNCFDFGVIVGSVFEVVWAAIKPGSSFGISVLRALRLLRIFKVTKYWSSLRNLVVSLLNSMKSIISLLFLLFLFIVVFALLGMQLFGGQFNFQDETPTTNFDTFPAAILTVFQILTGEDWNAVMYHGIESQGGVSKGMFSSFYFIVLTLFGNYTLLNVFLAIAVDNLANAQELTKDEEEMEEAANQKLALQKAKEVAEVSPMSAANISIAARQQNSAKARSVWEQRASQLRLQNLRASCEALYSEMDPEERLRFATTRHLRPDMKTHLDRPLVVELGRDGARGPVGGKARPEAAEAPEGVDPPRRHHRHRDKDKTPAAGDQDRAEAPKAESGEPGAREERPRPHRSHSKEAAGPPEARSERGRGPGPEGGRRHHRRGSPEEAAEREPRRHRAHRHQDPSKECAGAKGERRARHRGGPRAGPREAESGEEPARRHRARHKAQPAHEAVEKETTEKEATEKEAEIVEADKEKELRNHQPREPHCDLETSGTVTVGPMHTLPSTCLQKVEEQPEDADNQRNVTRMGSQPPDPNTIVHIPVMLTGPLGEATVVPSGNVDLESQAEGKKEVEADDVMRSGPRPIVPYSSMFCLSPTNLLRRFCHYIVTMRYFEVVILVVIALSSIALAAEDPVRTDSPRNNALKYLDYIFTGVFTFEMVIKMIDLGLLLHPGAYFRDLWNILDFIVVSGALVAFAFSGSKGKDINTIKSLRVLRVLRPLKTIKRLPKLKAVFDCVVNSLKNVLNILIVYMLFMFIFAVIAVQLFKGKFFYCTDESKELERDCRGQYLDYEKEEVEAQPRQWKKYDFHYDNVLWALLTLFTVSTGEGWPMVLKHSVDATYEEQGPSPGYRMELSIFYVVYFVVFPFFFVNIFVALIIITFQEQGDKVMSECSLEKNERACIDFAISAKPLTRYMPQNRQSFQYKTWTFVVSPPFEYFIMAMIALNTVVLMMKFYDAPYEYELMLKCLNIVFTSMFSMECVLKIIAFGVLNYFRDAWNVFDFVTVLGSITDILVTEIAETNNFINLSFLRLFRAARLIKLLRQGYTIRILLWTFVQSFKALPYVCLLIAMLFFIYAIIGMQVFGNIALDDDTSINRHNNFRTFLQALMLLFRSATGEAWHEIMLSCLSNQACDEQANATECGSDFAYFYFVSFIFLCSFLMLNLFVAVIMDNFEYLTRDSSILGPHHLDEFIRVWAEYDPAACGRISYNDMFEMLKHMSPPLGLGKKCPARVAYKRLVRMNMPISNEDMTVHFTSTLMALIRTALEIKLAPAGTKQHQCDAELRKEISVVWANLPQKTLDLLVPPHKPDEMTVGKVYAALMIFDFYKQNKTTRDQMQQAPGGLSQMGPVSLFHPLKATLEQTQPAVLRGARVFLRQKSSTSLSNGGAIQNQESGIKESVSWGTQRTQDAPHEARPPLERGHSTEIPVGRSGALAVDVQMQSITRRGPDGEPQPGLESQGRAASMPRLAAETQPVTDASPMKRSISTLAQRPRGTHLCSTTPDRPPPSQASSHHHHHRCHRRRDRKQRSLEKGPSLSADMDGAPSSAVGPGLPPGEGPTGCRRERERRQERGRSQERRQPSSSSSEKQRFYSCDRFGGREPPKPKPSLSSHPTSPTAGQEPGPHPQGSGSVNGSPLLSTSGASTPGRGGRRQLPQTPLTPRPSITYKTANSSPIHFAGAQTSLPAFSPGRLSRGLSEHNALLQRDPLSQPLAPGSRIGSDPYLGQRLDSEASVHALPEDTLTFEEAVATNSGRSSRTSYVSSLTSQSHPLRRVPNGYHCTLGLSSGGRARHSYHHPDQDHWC
T3 sequence (Q02410 whole entry): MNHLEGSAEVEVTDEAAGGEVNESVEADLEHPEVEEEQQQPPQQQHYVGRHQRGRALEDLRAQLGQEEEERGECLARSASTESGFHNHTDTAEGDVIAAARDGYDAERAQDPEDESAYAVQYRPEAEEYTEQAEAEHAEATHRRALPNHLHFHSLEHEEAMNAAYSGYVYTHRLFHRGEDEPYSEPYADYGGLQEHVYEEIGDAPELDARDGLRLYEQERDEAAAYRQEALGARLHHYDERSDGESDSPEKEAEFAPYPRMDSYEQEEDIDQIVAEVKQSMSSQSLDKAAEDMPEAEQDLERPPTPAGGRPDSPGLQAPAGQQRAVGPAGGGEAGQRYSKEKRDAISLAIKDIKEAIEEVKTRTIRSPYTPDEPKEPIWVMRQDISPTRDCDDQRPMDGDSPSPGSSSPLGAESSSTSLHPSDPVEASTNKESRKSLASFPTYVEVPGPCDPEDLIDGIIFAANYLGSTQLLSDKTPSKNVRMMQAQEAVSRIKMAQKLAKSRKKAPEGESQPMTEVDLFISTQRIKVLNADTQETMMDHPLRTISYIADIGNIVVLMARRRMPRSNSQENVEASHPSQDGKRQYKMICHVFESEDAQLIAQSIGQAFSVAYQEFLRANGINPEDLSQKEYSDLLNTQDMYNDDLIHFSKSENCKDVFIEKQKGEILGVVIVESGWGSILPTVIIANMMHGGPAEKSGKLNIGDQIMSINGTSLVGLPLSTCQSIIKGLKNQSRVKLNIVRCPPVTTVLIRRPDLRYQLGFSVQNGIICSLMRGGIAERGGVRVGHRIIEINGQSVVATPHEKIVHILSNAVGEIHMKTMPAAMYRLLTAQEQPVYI
Experiment [8] deals with T3, Voltage-gated N-type calcium channel alpha-1B subunit/Amyloid beta A4 precursor protein-binding family A member 1. In kind it is protein assay. This is another data set of the same source.
For experiment [9], the target named is Induced myeloid leukemia cell differentiation protein Mcl-1 (Homo sapiens, UniProt Q07820). In kind it is functional.
The target of another experiment is SUMO E1/E2 (Homo sapiens, UniProt P63279+Q9UBE0+Q9UBT2). Kind of experiment: SAR analysis of SUMOylation using HTRF in an in-Vitro dose response assay. [Related pubchem assays (depositor defined):AID2006, AID2011, AID2018, AID2069, AID2658]. In kind it is functional.
Experiment [10] deals with T3, Voltage-gated N-type calcium channel alpha-1B subunit/Amyloid beta A4 precursor protein-binding family A member 1. Kind of experiment: disruptors of Mint-PDZ/N-type channel peptide interaction – biochemical, HTRF, set 2, SAR follow-up (AID 434980). In kind it is functional.
For experiment [11] the target is unchanged. The experiment can be described thus: disruptors of Mint-PDZ/N-type channel peptide interaction – biochemical, HTRF, SAR follow-up (AID 2489). In kind it is functional.
Experiment [12] deals with T4, Probable nicotinate-nucleotide adenylyltransferase (Staphylococcus aureus (strain N315), UniProt P65502). In kind it is functional, Staphylococcus aureus subsp. aureus N315.
T4 sequence (P65502 whole entry): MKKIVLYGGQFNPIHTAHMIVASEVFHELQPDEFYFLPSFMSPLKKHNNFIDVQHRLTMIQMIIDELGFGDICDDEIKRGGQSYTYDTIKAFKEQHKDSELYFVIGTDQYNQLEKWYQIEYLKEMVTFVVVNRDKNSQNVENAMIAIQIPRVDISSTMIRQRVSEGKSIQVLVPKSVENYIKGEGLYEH
For experiment [13], the target named is T4, Probable nicotinate-nucleotide adenylyltransferase. In kind it is functional, Staphylococcus aureus subsp. aureus N315. To be noted: read-out: IC50_Mean.
In experiment [14] the target is Dual specificity protein phosphatase 3 (Homo sapiens, UniProt P51452). The experiment can be described thus: VHR1 inhibitor Ki determination, SAR follow-up, biochemical, colorimetric (AID 2004).
A further experiment addresses T5, Caspase-3 (Homo sapiens, UniProt P42574).
T5 sequence (P42574 whole entry): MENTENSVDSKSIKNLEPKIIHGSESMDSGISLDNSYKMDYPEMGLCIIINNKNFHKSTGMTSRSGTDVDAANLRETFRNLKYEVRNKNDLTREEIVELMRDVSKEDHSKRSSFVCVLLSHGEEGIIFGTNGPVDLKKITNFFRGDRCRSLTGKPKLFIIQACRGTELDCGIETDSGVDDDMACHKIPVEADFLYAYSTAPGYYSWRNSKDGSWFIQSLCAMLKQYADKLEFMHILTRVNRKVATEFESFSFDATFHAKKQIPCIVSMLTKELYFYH
Kind of experiment: procaspase-3 activation potency of dual hits, dose response, counter-screen for dual procaspase-3/7 activator project, biochemical, absorbance, PC-3 D3A mutant (AID 504328).

Another experiment has as its target Caspase-7 (Homo sapiens, UniProt P55210). Kind of experiment: procaspase-7 activators, dose response, dual procaspase-3/-7 activator project, biochemical, absorbance, human (AID 504330).
A further experiment relates to HeLa. The experiment can be described thus: HeLa cell cytotoxicity, dose response, cytotoxicity control, 24 h, cherry-picked samples (AID 504726).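 Further: potency for cytotoxicity as loss of luminescence signal.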 In kind it is functional, cell-based. As to conditions: Homo sapiens.
In another experiment the target is Mu-type opioid receptor (Homo sapiens, UniProt P35372). The experiment can be described thus: SAR Analysis of Antagonists of the MOR Receptor using an Image-Based Assay - Set 3. [Related pubchem assays (depositor defined):AID1777, AID1785, AID1786, AID1966, AID2133, AID2136, AID2284, AID2285, AID2420]. In kind it is functional.
Experiment [15] deals with T6, Kappa-type opioid receptor (Homo sapiens, UniProt P41145). Kind of experiment: SAR analysis of small molecule antagonists of the kappa opioid receptor via a luminescent beta-arrestin assay - Set 4. [Related pubchem assays (depositor defined):AID1777, AID1778, AID1785, AID1786, AID1966, AID2133, AID2136, AID2285]. In kind it is functional.
T6 sequence (P41145 whole entry): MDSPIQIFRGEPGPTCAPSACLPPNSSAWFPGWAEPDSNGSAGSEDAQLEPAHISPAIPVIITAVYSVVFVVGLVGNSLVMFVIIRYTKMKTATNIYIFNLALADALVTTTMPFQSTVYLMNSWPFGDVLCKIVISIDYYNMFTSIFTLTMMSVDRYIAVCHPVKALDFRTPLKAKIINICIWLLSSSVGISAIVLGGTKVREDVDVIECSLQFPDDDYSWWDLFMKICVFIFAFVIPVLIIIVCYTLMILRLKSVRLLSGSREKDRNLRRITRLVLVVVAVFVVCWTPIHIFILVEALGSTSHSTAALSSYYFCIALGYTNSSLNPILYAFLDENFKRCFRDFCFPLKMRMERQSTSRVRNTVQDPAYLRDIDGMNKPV
In experiment [16] the target is Delta-type opioid receptor (Homo sapiens, UniProt P41143). The experiment can be described thus: SAR Analysis of Antagonists of the DOR Receptor using an Image-Based Assay - Set 3. [Related pubchem assays (depositor defined):AID1777, AID1785]. In kind it is functional.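 Further: U2OS cells expressing DOR1 and beta-arrestin GFP stimulated with 100 nM SNC80; imaging of GFP-tagged beta-arrestin moving into spots after receptor activation.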
Delta-type opioid receptor, sequence (P41143 whole entry): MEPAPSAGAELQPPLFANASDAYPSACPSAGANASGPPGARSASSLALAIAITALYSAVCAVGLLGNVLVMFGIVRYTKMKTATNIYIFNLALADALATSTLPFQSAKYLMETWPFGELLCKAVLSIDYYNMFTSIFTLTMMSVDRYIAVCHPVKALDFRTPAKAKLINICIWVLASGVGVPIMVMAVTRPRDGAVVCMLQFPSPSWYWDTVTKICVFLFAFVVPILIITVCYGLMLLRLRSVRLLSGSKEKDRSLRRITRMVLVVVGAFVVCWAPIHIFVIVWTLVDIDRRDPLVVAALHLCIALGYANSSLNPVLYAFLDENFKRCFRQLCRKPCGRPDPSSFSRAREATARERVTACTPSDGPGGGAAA
Experiment [17] concerns the target T6, Kappa-type opioid receptor. The experiment can be described thus: SAR analysis of Antagonists of the Kappa Opioid Receptor (KOR) using an Image-Based Assay - Set 4. [Related pubchem assays (depositor defined):AID1777, AID1785]. In kind it is functional.
A further experiment concerns the target Wee1-like protein kinase (Homo sapiens, UniProt P30291). Kind of experiment: G2/M cell cycle arrest in HeLa, late-stage follow-up, mechanism study for Wee1 degradation inhibitor project, FACS, panel member Wee1 Degradation (AID 2088).
For experiment [18], the target named is G2/mitotic-specific cyclin-B1 (Homo sapiens, UniProt P14635). The experiment can be described thus: G2/M cell cycle arrest in HeLa, late-stage follow-up, mechanism study for Wee1 degradation inhibitor project, FACS, panel member Cyclin B Degradation (AID 2088).
In experiment [19] the target is Luciferin 4-monooxygenase (Photinus pyralis, UniProt P08659). Kind of experiment: firefly luciferase enzyme inhibitors, dose response, biochemical, luminescence (AID 1891).
Experiment [20] in a line: Luminescence Cell-Based Dose Confirmation HTS to Identify Inhibitors of Platelet Dense Granule Release. [Related pubchem assays: 1663 (Primary HTS), 1678 (Summary of Project)]. In kind it is functional.
The nature of experiment [21]: inhibition of ADP-Glo detection reagents, dose response, artefact control for CDK5 inhibitor project, biochemical, luminescence, cherry-picked samples, set 2 (AID 504546). In kind it is functional. On the technique in general: ADP-Glo first removes unused ATP, then detects ADP through luciferase.
Experiment [22] deals with Cyclin-dependent kinase 5/CDK5 activator 1 (Homo sapiens, UniProt Q00535). Kind of experiment: CDK5/p35 kinase inhibitors, dose response, biochemical, cherry-picked samples, set 2 (AID 504545).
Cyclin-dependent kinase 5/CDK5 activator 1, sequence (Q00535 whole entry): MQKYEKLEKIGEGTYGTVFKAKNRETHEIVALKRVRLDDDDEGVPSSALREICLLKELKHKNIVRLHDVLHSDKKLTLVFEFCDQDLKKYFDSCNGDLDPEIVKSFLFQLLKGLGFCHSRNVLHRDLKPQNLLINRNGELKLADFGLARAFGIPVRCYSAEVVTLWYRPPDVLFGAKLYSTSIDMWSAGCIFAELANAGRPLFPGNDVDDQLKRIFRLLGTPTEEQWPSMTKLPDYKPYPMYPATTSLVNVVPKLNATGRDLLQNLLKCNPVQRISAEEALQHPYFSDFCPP
Cyclin-dependent kinase 5/CDK5 activator 1, sequence (Q15078 whole entry, further chain): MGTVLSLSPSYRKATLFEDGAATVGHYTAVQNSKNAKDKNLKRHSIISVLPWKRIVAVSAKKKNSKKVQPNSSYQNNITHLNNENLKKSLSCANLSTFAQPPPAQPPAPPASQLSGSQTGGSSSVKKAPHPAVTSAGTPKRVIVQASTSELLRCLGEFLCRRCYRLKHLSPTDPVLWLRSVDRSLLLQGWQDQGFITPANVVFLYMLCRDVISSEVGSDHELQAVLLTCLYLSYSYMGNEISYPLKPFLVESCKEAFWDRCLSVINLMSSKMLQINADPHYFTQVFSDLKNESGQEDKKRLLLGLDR

Each structure is given as a SMILES string. Activity calls are given as the source filed them.

The term Ki denotes a measure of affinity in units of concentration, obtained from inhibition or displacement. As usually defined, the EC50 is the concentration giving half of the maximal effect. What is called AC50 is the concentration giving half of the maximal activity seen.
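Wherever IC50 Mean is given: confirmatory dose-response retesting of NadD inhibitor hits first found in an ultra-high-throughput screen.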

Bcl-2-like protein 10, sequence (Q9HD36 whole entry): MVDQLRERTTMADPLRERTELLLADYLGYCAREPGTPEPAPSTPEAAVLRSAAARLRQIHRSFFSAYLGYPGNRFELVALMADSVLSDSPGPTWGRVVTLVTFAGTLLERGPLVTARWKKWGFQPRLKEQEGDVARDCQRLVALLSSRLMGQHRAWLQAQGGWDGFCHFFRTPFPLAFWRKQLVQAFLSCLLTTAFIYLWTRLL

With `N#Cc1ccc(CSc2nnc(NC(=O)c3ccc4ncsc4c3)s2)cc1`, the IC50 is 7.42 µM (active) in experiment [1]; > 67 µM (not active) in experiment [2]; 3.79 µM (active) in [3]; 3.91 µM (active) in experiment [4]; 13.1 µM (active) in [5]; 10.4 µM (active) on Hexokinase HKDC1.
Turning to `CCN(CC)CCc1c(C)[nH]c(C(=O)OCc2ccccc2)c1C`, the IC50 at Bcl-2-like protein 10 was 41.8 µM (active); in experiment [6] it was 14.4 µM (not active).
For `COc1ccc(NC(=O)c2cc(-c3ccco3)nc3ccccc23)cc1S(=O)(=O)N1CCOCC1`, the IC50 against Genome polyprotein is > 49.8 µM (not active); in experiment [7] it was 2.59 µM (active); in experiment [8] it was 3.76 µM (active); in experiment [9], 2.29 µM (active); on SUMO E1/E2 it was 19.4 µM (active); in experiment [10] it was 17.7 µM (active). Also, the IC50 in experiment [11] is 15 µM (active); in experiment [12], 8.76 µM (active); in experiment [13], 28.1 µM (active).
As to `O=Cc1ccc(Oc2ncnc3ccccc23)cc1`, in experiment [14], the Ki is 43.7 µM (inactive).
For the molecule `COc1ccc(-c2cc(C(=O)OC3CCOC3=O)c3ccccc3n2)cc1` (stereo unspecified), the EC50 at Caspase-3 and at Caspase-7 was > 85.3 µM (inactive) each time.
Consider `NNc1nc2sc3c(c2c(=O)n1C1CCCCC1)CCN(Cc1ccccc1)C3`, for which the AC50 in the experiment with HeLa was 46 µM (active).
For `Cc1ccc(S(=O)(=O)NCc2ccc(C(=O)NC3CCN(Cc4ccccc4)C3)cc2)cc1` (stereo unspecified), the IC50 on Mu-type opioid receptor was > 32 µM (inactive); in [15], > 20 µM (inactive); in experiment [16], > 32 µM (inactive); in [17] it was > 32 µM (inactive).
On to `Cc1cc(O)nc(-n2nc(C)cc2NC(=O)c2cc3ccccc3o2)n1`, for which the EC50 is > 16.6 µM (active) on Wee1-like protein kinase and > 49.7 µM (inactive) in [18].
Regarding `COc1ccc(C(=O)O/N=C(\C)c2ccccc2)cc1`, the 50% effective concentration (EC50) in experiment [19] was 0.637 µM (active); in [20], 3.61 µM (active). Also, the concentration at half-maximal activity (AC50) in experiment [21] was 90.4 µM (active); in experiment [22], 26.1 µM (active).

For the origin of these results see ChEMBL document CHEMBL1201862, “PubChem BioAssay data set” (2004).
